Assay [1] has as its system various fungi of some species belonging to the genus Trichophyton. Nature of the assay: Growth inhibition of fungi of the genus Trichophyton (text summary of Table 1). It counts as cell-based.
A further assay has as its system Candida albicans. Nature of the assay: Antimicrobial spectrum, MIC, potato agar. In kind it is cell-based. The settings on record: 96 h, potato agar (pH 6.4, 4 days, 27° C.).
The subject of assay [2] is Mycoplasma gallisepticum. Nature of the assay: Therapeutic effect on chronic respiratory disease of chickens. In kind it is in vivo.
Assay [3] deals with fungi (Test Organisms of Table 4). Briefly: Antifungal activity, comparison in words (Table 4). In kind it is cell-based.
Another assay relates to Pseudomonas aeruginosa. Nature of the assay: Antimicrobial spectrum, MIC, nutrient agar. The settings on record: 48 h, nutrient agar (pH 7.0, 2 days, 37° C.). It counts as cell-based.
The subject of assay [4] is Mycoplasma gallisepticum. Nature of the assay: Growth inhibition of Mycoplasma gallisepticum (text summary of Table 1). In kind it is cell-based. The settings on record: Mycoplasmoides gallisepticum, 192 h, read-out: growth inhibited at a concentration. As for the experimental part:
H Hokken PPLO agar (pH 7.8, 8 days, 37° C.)
E Eiken PPLO agar (pH 7.8, 8 days, 37° C.)
MIC Minimal inhibitory concentration

Another assay deals with Trichophyton purpureum. Nature of the assay: Antimicrobial spectrum, MIC, potato agar. It counts as cell-based. The settings on record: 96 h, potato agar (pH 6.4, 4 days, 27° C.).

≈ marks a conversion by molar mass, not a printed value.

With `CC1OC(CC(=O)O)CC2C(=O)c3cccc(O)c3C(=O)C12O` (stereo not shown) [Nanaomycin B], the MIC in assay [1] (Trichophyton, 96 h, summary of Table 1, read-out: growth inhibited at a concentration) was no more than 25 mg/L; in the assay on Candida albicans, 31.2 mg/L (≈ 97.4 µM); against Pseudomonas aeruginosa it was greater than 500 mg/L; in the assay with Mycoplasma gallisepticum [4], no more than 0.1 mg/L; with Trichophyton purpureum it was 25 mg/L (≈ 78.1 µM). For the same molecule, the activity on trycophyton entry in assay [1] (in words) is given as “active”. For the same molecule, the “therapeutic effect on chronic respiratory disease” value in the assay on Mycoplasma gallisepticum [2] is recorded as “therapeutic effect”. Moreover, in assay [3], the “antifungal activity compared with deoxyfrenolicin” value is reported as “slightly inferior”. The “antifungal activity compared with ethylkalafunginate (ethylkalamycinate)” value in assay [3] is listed as “superior”. In addition, the “antifungal activity when the pH of the medium is higher than 6.4” value in assay [3] (pH of medium higher than 6.4) is given as “stronger antifungal activity”.

The record behind these values is US4308210A, “Nanaomycin B and therapeutic compositions containing same” (The Kitasato Institute, priority 1976, dated 1981).
